Laboratory results: patent publication US20150112425A1, “DELIVERY OF HIGHLY LIPOPHILIC AGENTS VIA MEDICAL DEVICES” (Abbott Laboratories, priority 2005, published 2015)
Read-outs that look alike come from different tables or passages of the source. One block for each molecule: values may come before it.

Assays:
[1] = Pharmacokinetics after single intravenous dose in cynomolgus monkey; type: in vivo; conditions: for t1/2: terminal elimination, single 2.5 mg/kg intravenous dose, blood; for Terminal elimination half-life compared to rapamycin: cynomolgus monkey, intravenous
[2] = tested on: human mixed lymphocyte reaction (MLR); assay: Human mixed lymphocyte reaction (MLR) assay; type: cell-based; conditions: read-out: Human MLR IC50 ± S.E.M.
[3] = Six-hour elution from PC1036-coated coupons (FIG. 10-13); type: physicochemical; conditions: for Amount released from coupon: after 6 hours, pH 7.4 PBS, 37° C.; for Amount remaining on coupon: six-hour elution
Description: Prior to any experimentation, coated stainless steel coupons were prepared. These coupons were 316 L electropolished stainless steel discs (10 mm diameter). This size was chosen because the surface area of one side of the coupon is similar to the surface area of a 15-mm open cell BiodivYsio stent. […]. The cleaning was a two-step process in which the coupons are sonicated for 3 minutes in dichloromethylene and 3 minutes in ethanol. The coupons were allowed to dry at room temperature. One side of the coupon was coated using a filtered 20-mg/mL solution of phosphoryl choline polymer PC1036 (product of Biocompatibles Ltd., Farnham, Surrey, UK) in ethanol. Twenty μL PC solution was placed onto the coupon using a gas tight glass syringe, ensuring that the entire surface was coated but not spilling over the sides of the coupon. The coupons were initially air dried and then cured at 70° C. for 16 hours. They were then sent for gamma irradiation at <25KGy. The resulting PC coating thickness was close to that of the stent and thick enough to accommodate the desired loaded drug dose, as graphically represented in FIG. 9A-B. FIG. 9A-B is a top and side view of a coated stainless steel coupon 30, having a PC-coating 20 on a electropolished stainless steel disc.
In these experiments, beneficial agents were loaded onto coupons and elution profiles examined. In general, the procedure is as follows. Twelve PC-coated coupons were loaded with each drug. The solutions of the drugs were usually 5.0 mg/mL in 100% ethanol and were filtered with a 0.45 μm filter prior to use.
The coupons were weighed before loading with the drug solution. To load 100 μg of drug, 20 μL of solution was placed (e.g., pipetted) on the center of the PC coated side of the coupon. The coupon was placed in a vial for 30 minutes with the lid closed to allow the drug to penetrate the coating. The lid was removed and the coupon was allowed to dry for an additional 90 minutes. To ensure that the coupon was completely dry, the coupon was weighed, and after 15 minutes the coupon was weighed a third time. When two weightings of the coupon were the same, the coupon was considered dry. The loaded, dry coupons were stored in a refrigerator protected from light.
For each drug, six coupons were used to evaluate the total amount of drug loaded by the above procedure. The coupons were immersed in 5 mL of 50% ethanol, 50% water solution and sonicated for 1 hour. The concentration of the drug in the extraction solution was analyzed by HPLC.
At the end of the elution experiments discussed below, the coupons were removed from the elution media and immersed in 5 mL of 50% ethanol, 50% water solution and sonicated for 1 hour. The concentration of the drug in these vials indicated the amount of the drug remaining in the coupons at the end of the elution experiments.
Six coated coupons of each drug were used for the elution experiments. The coupons were individually placed, coating side up, in small metal cups to hold the coupon and to allow movement to a new vial at each time point. The coupons were usually placed in a vial containing 10 mL of pH 7.4 phosphate buffered saline. The vials were stored in an orbital shaker, with horizontal shaking of 100 rpm, at 37° C. for at least 30 minutes before insertion of a coupon to allow the solution to equilibrate at the desired temperature. After the desired time had lapsed, the coupon holder was lifted and allowed to drain. It was then placed into a pre-warmed vial corresponding to the next time point. This procedure continued until the predetermined time had elapsed. At that point, the coupons went through a drug extraction step as outlined earlier. The amount of drug in the elution samples was determined by HPLC.

[4] = representative summary; cited from earlier work
[5] = Stability of dexamethasone on PC-coated stents in ETO sterilization (FIG. 16); type: physicochemical
[6] = Shake-flask aqueous solubility study of DES drugs (FIG. 20); conditions: for Aqueous solubility, rank order: amorphous DES drugs, dexamethasone crystalline
[7] = Transfer coefficient (P divided by S) of DES drugs (FIG. 21); type: physicochemical; conditions: P divided by equilibrium aqueous solubility S (μg/ml)
[8] = Shake-flask octanol/water partition coefficient study of DES drugs (FIG. 20); type: physicochemical
Description: “Solubility” is based on a standard measure used in medicinal chemistry. The octanol-water partition coefficient (P) is the ratio of distribution of a compound in a mixture of 1-octanol and H2O. Log P is the base 10 logarithm of the partition coefficient.
In the measurement of the partition coefficient (octanol/water), preliminary studies were conducted to determine the optimum drug concentration for each test, and the appropriate time for establishing the partition equilibrium. All experiments were carried out by two different analysts and on multiple drug lots.

[9] = Pig model, tissue and blood concentrations of zotarolimus eluted from ZoMaxx stents (FIG. 25); type: in vivo

t1/2 [1]: 2.8 h | IC50 [2]: 12.4 ± 5.3 nM
Molecule: 40-epi-N-[2′-pyridone]-rapamycin [Example 2-pyridone]

Molecule: CO[C@H]1C[C@@H]2CC[C@@H](C)[C@@](O)(O2)C(=O)C(=O)N2CCCC[C@H]2C(=O)O[C@H]([C@H](C)C[C@@H]2CC[C@H](n3ncnn3)[C@H](OC)C2)CC(=O)[C@H](C)/C=C(\C)[C@@H](O)[C@@H](OC)C(=O)[C@H](C)C[C@H](C)/C=C/C=C/C=C/1C (single isomer, unassigned; less polar) [Example 1, 42-Epi-(tetrazolyl)-rapamycin (less polar isomer)]
Terminal elimination half-life compared to rapamycin [1]: substantially shorter

Terminal elimination half-life compared to rapamycin [1]: substantially shorter
Molecule: COC1CC2CCC(C)C(O)(O2)C(=O)C(=O)N2CCCCC2C(=O)OC(C(C)CC2CCC(n3cnnn3)C(OC)C2)CC(=O)C(C)C=C(C)C(O)C(OC)C(=O)C(C)CC(C)C=CC=CC=C1C (single isomer, unassigned; more polar) [Example 2, 42-Epi-(tetrazolyl)-rapamycin (more polar isomer)]

Amount released from coupon ([3]; in absence of zotarolimus): 50% | Amount released from coupon ([3]; in presence of zotarolimus): less than 10%
Molecule: CCCCN(CCCC)C(=O)CN1C[C@H](c2ccc3c(c2)OCO3)[C@@H](C(=O)O)[C@@H]1c1ccc(OC)cc1.Cl [ABT-627, atrasentan]
LogP Values [4]: 3.4

Molecule: COc1ccccc1OCCNCC(O)COc1cccc2[nH]c3ccccc3c12 (stereo not drawn) [Carvedilol]
LogP Values [4]: 1.97

Molecule: C#C[C@]1(O)CC[C@H]2[C@@H]3CCC4=Cc5oncc5C[C@]4(C)[C@H]3CC[C@@]21C [Danazol]
LogP Values [4]: 4.5

Amount remaining on coupon ([3]; coupon containing zotarolimus): ~70% | Amount remaining on coupon ([3]; no zotarolimus present): 25% | Degradation in ETO sterilization environment ([5]; dexamethasone-only coating): degraded | Degradation in ETO sterilization environment ([5]; loaded in combination with zotarolimus, 1-to-1 ratio): did not degrade
Molecule: C[C@@H]1C[C@H]2[C@@H]3CCC4=CC(=O)C=C[C@]4(C)[C@@]3(F)[C@@H](O)C[C@]2(C)[C@@]1(O)C(=O)CO [Dexamethasone]
Aqueous solubility, rank order [6]: increasing order: paclitaxel, zotarolimus, rapamycin, and dexamethasone (crystalline) | LogP Values [4]: ~1.9-2.2

Amount released from coupon ([3]; in absence of zotarolimus): ~90% | Amount released from coupon ([3]; in presence of zotarolimus): about 52%
Molecule: OCCN(CCO)c1nc(N2CCCCC2)c2nc(N(CCO)CCO)nc(N3CCCCC3)c2n1 [Dipyridamole]

t1/2 [1]: 13.3 h | IC50 [2]: 0.43 ± 0.2 nM
Molecule: COC1CC2CCC(C)C(O)(O2)C(=O)C(=O)N2CCCCC2C(=O)OC(C(C)CC2CCC(n3ccc(=O)cc3)C(OC)C2)CC(=O)C(C)C=C(C)C(O)C(OC)C(=O)C(C)CC(C)C=CC=CC=C1C (stereo not drawn) [Example 4-pyridone, 40-epi-N-[4′-pyridone]-rapamycin]

Molecule: CC(C)OC(=O)C(C)(C)Oc1ccc(C(=O)c2ccc(Cl)cc2)cc1 [Fenofibrate]
LogP Values [4]: >4.5

Molecule: CCCCC/C=C\C/C=C\CCCCCCCC(=O)O [Linoleic acid]
LogP Values [4]: >6

Molecule: CC/C=C\C/C=C\C/C=C\CCCCCCCC(=O)O [Linolenic acid]
LogP Values [4]: >6

Molecule: CCCCCCCC/C=C\CCCCCCCC(=O)O [Oleic acid]
LogP Values [4]: >6

Molecule: CC(=O)O[C@H]1C(=O)[C@@]2(C)[C@H]([C@H](OC(=O)c3ccccc3)[C@]3(O)C[C@H](OC(=O)[C@H](O)[C@@H](NC(=O)c4ccccc4)c4ccccc4)C(C)=C1C3(C)C)[C@]1(OC(C)=O)CO[C@@H]1C[C@@H]2O [Paclitaxel]
Transfer coefficient, rank order [7]: zotarolimus>>paclitaxel>>rapamycin>dexamethasone | Aqueous solubility, rank order [6]: increasing order: paclitaxel, zotarolimus, rapamycin, and dexamethasone (crystalline)

Molecule: O=C(Oc1ccccc1)c1ccccc1O [Phenyl salicylate]
LogP Values [4]: 4.1

Molecule: CC(C)(Sc1cc(C(C)(C)C)c(O)c(C(C)(C)C)c1)Sc1cc(C(C)(C)C)c(O)c(C(C)(C)C)c1 [Probucol]
LogP Values [4]: >8

Molecule: CC(=O)[C@H]1CC[C@H]2[C@@H]3CCC4=CC(=O)CC[C@]4(C)[C@H]3CC[C@]12C [Progesterone]
LogP Values [4]: 3.2

Molecule: CO[C@H]1C[C@@H]2CC[C@@H](C)[C@@](O)(O2)C(=O)C(=O)N2CCCC[C@H]2C(=O)O[C@H]([C@H](C)C[C@@H]2CC[C@@H](O)[C@H](OC)C2)CC(=O)[C@H](C)/C=C(\C)[C@@H](O)[C@@H](OC)C(=O)[C@H](C)C[C@H](C)/C=C/C=C/C=C/1C [Rapamycin]
Lipophilicity rank among DES drugs tested [8]: the most lipophilic compounds in the group tested | IC50 ([2]; Homo sapiens, Lymphocyte): 0.91 ± 0.36 nM | Transfer coefficient, rank order [7]: zotarolimus>>paclitaxel>>rapamycin>dexamethasone | Aqueous solubility, rank order [6]: increasing order: paclitaxel, zotarolimus, rapamycin, and dexamethasone (crystalline) | LogP Values [4]: >4.5

Molecule: CCCCCCCCCCCCCCCCCC(=O)O [Stearic acid]
LogP Values [4]: >6

Molecule: C=CC[C@@H]1/C=C(\C)C[C@H](C)C[C@H](OC)[C@H]2O[C@@](O)(C(=O)C(=O)N3CCCC[C@H]3C(=O)O[C@H](/C(C)=C/[C@@H]3CC[C@@H](O)[C@H](OC)C3)[C@H](C)[C@@H](O)CC1=O)[C@H](C)C[C@@H]2OC [Tacrolimus]
LogP Values [4]: >4.5

Molecule: CC[C@]1(O)C[C@@H]2CN(CCc3c([nH]c4ccccc34)[C@@](C(=O)OC)(c3cc4c(cc3OC)N(C)[C@H]3[C@@](O)(C(=O)OC)[C@H](OC(C)=O)[C@]5(CC)C=CCN6CC[C@]43[C@@H]65)C2)C1 [Vinblastine]
LogP Values [4]: 3.6

Molecule: CC[C@]1(O)C[C@H]2CN(CCc3c([nH]c4ccccc34)[C@@](C(=O)OC)(c3cc4c(cc3OC)N(C=O)[C@H]3[C@@](O)(C(=O)OC)[C@H](OC(C)=O)[C@]5(CC)C=CCN6CC[C@]43[C@@H]65)C2)C1 [Vincristine]
LogP Values [4]: 2.6

Molecule: CC[C@]1(O)C[C@@H]2CN(CCc3c([nH]c4ccccc34)[C@@](C(=O)OC)(c3cc4c(cc3OC)N(C)[C@H]3[C@@](O)(C(N)=O)[C@H](O)[C@]5(CC)C=CCN6CC[C@]43[C@@H]65)C2)C1 [Vindesine]
LogP Values [4]: 1.3

Molecule: CO[C@H]1C[C@@H]2CC[C@@H](C)[C@@](O)(O2)C(=O)C(=O)N2CCCC[C@H]2C(=O)O[C@H]([C@H](C)C[C@@H]2CC[C@H](n3cnnn3)[C@H](OC)C2)CC(=O)[C@H](C)/C=C(\C)[C@@H](O)[C@@H](OC)C(=O)[C@H](C)C[C@H](C)/C=C/C=C/C=C/1C [Zotarolimus]
Concentration in arterial tissue adjacent to stent placement ([9]; all periods out to 28 days): substantial concentrations | Concentration in distal, unstented and subjacent myocardium and unstented and distal coronary arteries ([9]; throughout 28 days): therapeutically significant concentrations | Lipophilicity rank among DES drugs tested [8]: the most lipophilic of all DES drugs tested | Transfer coefficient, rank order [7]: zotarolimus>>paclitaxel>>rapamycin>dexamethasone | Aqueous solubility, rank order [6]: increasing order: paclitaxel, zotarolimus, rapamycin, and dexamethasone (crystalline) | Solubility in water compared with amorphous rapamycin ([6]; shake-flask): much less soluble in water than amorphous rapamycin | LogP Values [4]: >4.5
